Biological target: T1, NMDA receptor in erythrocytes (Homo sapiens, UniProt Q05586)
T1 construct: Potassium and calcium fluxes through the NMDA receptor in erythrocytes of healthy donors (C) and patients with sickle cell anemia; endogenous in cells; host or cells: freshly isolated human erythrocytes (HbSS patients and healthy donors)
Assay: Unidirectional K+ (86Rb) and Ca2+ (45Ca) fluxes via the cation channel of the NMDA receptor, radioactive tracer kinetics
Assay type: cell-based
Details: for NMDA- and PGE2-sensitive increase in fluxes: stimulated by NMDA (100 μM) or prostaglandine E2 (2 μM), blocker added
Protocol: FIGS. 2A and 2B: Potassium and calcium fluxes through the NMDA receptor in erythrocytes of healthy donors (C) and patients with sickle cell anemia (H). 2A: Unidirectional K^+ influx measured in chloride-free Na-methane sulfate medium in the presence of 100 μM ouabain, the inhibitor of […]. Conditions corresponding to the numbers at the X axis: (1) control; (2) 50 μM memantine chloride (Sigma-Aldhdge); (3) 100 μM NMDA; (4) NMDA+memantine chloride; (5) 2 μM prostaglandine E2 (PGE2); (6) PGE2+memantine chloride. * denotes p<0.05 compared to the corresponding values in healthy donor's erythrocytes, # stands for p<0.05 compared to the corresponding non-treated control. Data are means±SEM for 6-7 individuals. 2B: Unidirectional Ca^2+ influx in erythrocytes of a single HbSS patient measured on 3 different occasions and in three healthy donors. Conditions indicated in numbers at the X axis are: (1) non-treated control; (2) 100 μM NMDA; (3) 100 μM NMDA and 50 μM MK-801. * denotes p<0.05 compared to the corresponding healthy donors' samples.
The following experiments were conducted using fresh-isolated human erythrocytes of HbSS patients and healthy subjects.
Fluxes via the nonselective cation channel of the NMDA receptor were assessed using radioactive tracer kinetics. 86Rb was used as a radioactive tracer for K^+ and 45Ca as a tracer for Ca^2+. Fluxes through the red cell membrane were measures in the medium containing (mM) 145 Na-methane sulfate, 4 K-gluconate, 1 Ca-gluconate, 10 sucrose, 10 glucose and 10 HEPES-Tris (pH 7.4) in the presence of 100 μM L-arginine and 100 μM ouabain. Details of the flux measurement may be found elsewhere (e.g. Bogdanova et al., J Membr Biol. 2003; 195(1):33-42).

| SMILES | NMDA- and PGE2-sensitive increase in fluxes | also measured |
| --- | --- | --- |
| CC12CC3CC(C)(C1)CC(N)(C3)C2 [memantine, Memantine] | could be blocked | – |
| C[C@]12N[C@H](Cc3ccccc31)c1ccccc12 [MK-801, Dizocilpine] | could be blocked | – |
| CCCCC[C@H](O)/C=C/[C@H]1[C@H](O)CC(=O)[C@@H]1C/C=C\CCCC(=O)O [prostaglandine E2] | – | Fluxes of both cations (K+ and Ca2+) (agonist 2 μM): further stimulated |
| CN[C@H](CC(=O)O)C(=O)O [NMDA, N-methyl D-aspartate] | – | Fluxes of both cations (K+ and Ca2+) (agonist 100 μM): further stimulated |
